Results published in patent US11576913B2 (priority 2018, dated 2023).
Like-named read-outs stand apart in the source and are kept apart here.

What was measured:
Type in all cases: in vivo, human
[1] = tested on: subjects suffering from the Insomnia Disorder adult insomnia
Procedure: Following the evening-time dosing with study drug, subjects underwent eight hours of continuous PSG recording. Next-day residual effects were assessed by the DSST and the KSS evaluation, collected in that order, starting at approximately 30 minutes after “lights-on.” All tests were administered in the clinical unit, beginning 30 minutes after lights-on and periodically thereafter for approximately 16 hours post-lights-off, following completion of PSG recording. Each subject also completed a post-sleep questionnaire once after lights-on so that subjective impressions could be assessed about the “quality” and “quantity” of their sleep. Before the second night dosing in each dosing period, subjects were evaluated for any residual sleepiness. […] Subjects remained in the clinic until residual symptoms were minimized.
The well-known DSST is a paper-and-pencil neuropsychological test that explores attention and psychomotor speed and was therefore useful as an indication of next day residual effects, if any. When administered in multiple sessions over time, the DSST provided an objective indication of the change in performance.
Each subject was asked to match symbols with their corresponding digit as follows. […] The subject filled in as many squares as possible during the allowed 90 second time limit. The score was determined from the number of correct symbols. An untimed 7 blank square practice opportunity was provided before the 90 second time period began. Six different versions of the test were used to avoid learning effects that could occur if only a single version was used.
The DSST was administered starting approximately ½ hour after lights-on (i.e., about 9 hours post-dosing) and at about 1, 3, 4, 5, and 7 hours thereafter following completion of PSG recordings after each night of the baseline visit (Visit 2) and after each night of Dosing Periods 1-5.
The DSST results shown, other than for the baseline, are the mean results obtained from the DSST scores following all nights of Dosing Periods 1-5 for the indicated dose. The DSST results for the baseline are the mean results obtained following the first and second nights of the baseline visit. Note that for clarity of display purposes, in FIG. 6 many of the test results at each time period, e.g., at approximately ½ hour after lights-on/9 hours post-dosing, were staggered arbitrarily away from the actual time when the test was conducted.

clinical [2] = settings: for Fe, Mean (CV %): unchanged in urine; for CLr, Mean / Tmax / half-life / AUC / CL renal / Cmax: human, in vivo; for half-life: read-out: T1/2, Mean (CV %) (converted); for AUC / Cmax: Mean (CV %); for CL renal: CLr, Mean
Description: This study was designed to evaluate the safety and pharmacokinetic (“PK”) interactions between Compound (1C) and alcohol in healthy subjects. […] The study was designed as a single-site, randomized, single-dose, double-blinded, placebo-controlled crossover study, and 46 subjects completed treatment as part of the study.
The dose of alcohol at 0.7 g/kg was consistent with the NIAAA definition of binge drinking, which can lead to blood alcohol concentration of approximately 0.08 g/dL. In the United States this is generally considered the level at which a person is legally impaired. In addition, such dose level has been studied in previously completed relevant alcohol interaction study in which the safety and tolerability were established in a similar population (Hong Sun et al. “Psychomotor effects, pharmacokinetics and safety of the orexin receptor antagonist suvorexant administered in combination with alcohol in healthy subjects.” Journal of Psychopharmacology 2015, Vol. 29(11) 1159-1169).
Briefly, blinded alcoholic beverage or placebo beverage was consumed over a 20- to 30-minute period. The beverage was divided into 3 parts, with approximately ⅓ administered (consumed to completion by subject at their own pace) every 10 minutes, […], in order to control for drinking rate.
Subjects swallowed Compound (1C) with the alcoholic beverage, with small sips of water as needed if the subject could not drink the alcohol quickly enough to consume the alcohol. […] A mouthwash with water was provided before and at the end of dosing. A mouth check was performed to verify that the Compound (1C) doses administered are swallowed. Vital signs and oxygen saturation, SpO2, (FIG. 26) were collected for evaluation by the investigator.
AUCt Area under the plasma concentration-time curve from hour 0 to the last measurable plasma concentration, calculated by the linear trapezoidal method.
AUCinf Area under the plasma concentration-time curve extrapolated to infinity:
Where Ct is the last measurable plasma concentration and […] is the apparent terminal phase rate constant;
Cmax Maximum observed plasma concentration
Tmax Time to maximum plasma concentration
T1/2 Apparent terminal phase half-life: T1/2=(ln2)/λz

clinical [3] = assay: clinical
Procedure: (§1) The highest doses tested in healthy subjects were for a 30-mg single dose and a 10-mg multiple dose (once daily nighttime dose for 14 days). The highest dose tested in subjects with insomnia was 10 mg.

[4] = tested on: healthy subjects and subjects with insomnia
Procedure: as §1
The most frequent treatment-emergent adverse event (TEAEs) experienced by subjects was somnolence.

O=C(O)c1nc2ccccc2n([C@H]2C[C@H]3CCC[C@@H](C2)N3C2CC3CCCC(C3)C2)c1=O (stereo partly shown) [Compound (1C)]
next day residual effects by mean DSST results vs placebo ([1]; 0.5 mg, about 9 to about 16 hours post-dosing): no next day residual effects | next day residual effects by mean DSST results vs placebo ([1]; 1.0 mg, about 9 to about 16 hours post-dosing): no next day residual effects | next day residual effects by mean DSST results vs placebo ([1]; 3.0 mg, deviations at about 9, 10, 12, and 13 hours): minimal next day residual effects | next day residual effects by mean DSST results vs placebo ([1]; 6.0 mg, each of the testing times): some next day residual effects | Fe, Mean (CV %) (clinical [2]; 2 mg + EtOH (0.7 g/kg)): 84 (33) % | Urine Fe, Mean (clinical [2]; 2 mg Alone (N = 48)): 80.7% | Fe, Mean (CV %) (clinical [2]; 2 mg alone): 81 (12) % | PK profile of ethanol on co-administration of Compound (1C) (clinical [2]; 2 mg or 6 mg with ethanol vs ethanol with placebo, FIG. 24): not affected | Urine Fe, Mean (clinical [2]; 2 mg with Alcohol (N = 46)): 83.6% | Fe, Mean (CV %) (clinical [2]; 6 mg + EtOH (0.7 g/kg)): 80 (20) % | Urine Fe, Mean (clinical [2]; 6 mg Alone (N = 47)): 80.8% | Fe, Mean (CV %) (clinical [2]; 6 mg alone): 81 (10) % | Urine Fe, Mean (clinical [2]; 6 mg with Alcohol (N = 48)): 79.6% | effect of alcohol on the PK profile of Compound (1C) (clinical [2]; 2 and 6 mg with 0.7 g/kg ethanol): does not alter the PK profile | CLr, Mean (clinical [2]; 2 mg): 12.7 L/h | Tmax (clinical [2]; 2 mg): 1.7 h | half-life (clinical [2]; 2 mg + EtOH (0.7 g/kg)): 3.9 h | half-life (clinical [2]; 2 mg, 2 mg alone): 4 h | AUC (clinical [2]; 2 mg): 130 ng·h/mL | CL renal (clinical [2]; 2 mg): 210 mL/min | Cmax (clinical [2]; 2 mg): 28.2 ng/mL | CLr, Mean (clinical [2]; 6 mg): 12.3 L/h | Tmax (clinical [2]; 6 mg): 1.9 h | half-life (clinical [2]; 6 mg + EtOH (0.7 g/kg)): 4.5 h | half-life (clinical [2]; 6 mg, 6 mg alone): 4.5 h | AUC (clinical [2]; 6 mg): 402 ng·h/mL | CL renal (clinical [2]; 6 mg): 198 mL/min | Cmax (clinical [2]; 6 mg): 78.3 ng/mL | major elimination pathway (clinical [3]; human): Renal elimination | major metabolite in human plasma (clinical [3]; human plasma): No major metabolite has been identified | renal clearance (adjusted by plasma protein binding) compared with glomerular filtration rate (clinical [3]; human, in vivo): higher than the human glomerular filtration rate | Tmax (clinical [3]; human, in vivo, po): ~1.5 h | half-life (clinical [3]; human, in vivo, po): 2 to 3 h | dose proportionality of exposure (clinical [3]; once a day dosing for 2 weeks): approximately dose-proportional exposure up to 10 mg | dose proportionality of exposure (clinical [3]; single oral administration): approximately dose-proportional exposure up to 10 mg | unchanged drug recovered in urine (clinical [3]; within 48 hours): 80-100% | tolerability ([4]; 6 mg, nighttime dosing, healthy subjects and those with insomnia): well tolerated | safety and tolerability ([4]; across all tested dose levels): safe and well tolerated | serious adverse events (SAEs) ([4]; across all tested dose levels): no serious adverse events | most frequent treatment-emergent adverse event ([4]; completed clinical studies): somnolence | vital signs and electrocardiograms (ECGs) ([4]; completed clinical studies): no clinically significant findings | next day residual effects ([4]; dose equal or lower than 2 mg, after 8 hours post dosing): dose-dependent and generally decreased (back to placebo levels) | laboratory findings ([4]; including crystalluria or hematuria): No concerning laboratory findings
